In paper PMC3375360 (Journal of Medicinal Chemistry, 2012):

What was measured:
Assay type in all cases: cell-based
[1] = system: T.b. rhodesiense, strain STIB 900 trypomastigotes; test: In vitro growth inhibition of bloodstream form T. b. rhodesiense trypomastigotes; conditions: for activity designation against T. b. rhodesiense: TDR criteria
[2] = system: T. cruzi, strain Tulahuen C4 amastigotes; test: In vitro growth inhibition of T. cruzi amastigotes in infected L6 myoblasts
[3] = system: L. donovani axenic, strain MHOM-ET-67/L82 amastigotes; test: In vitro growth inhibition of axenically cultured L. donovani amastigotes; conditions: for activity designation against L. donovani: TDR criteria
[4] = system: bloodstream form T. b. brucei parasites, engineered to overexpress type I nitroreductase; test: microbe, parasite or virus in culture; conditions: Trypanosoma brucei, read-out: TbNTR −tet (IC50)
[5] = system: L6 cells (rat skeletal myoblasts); test: Cytotoxicity in L6 cells; conditions: read-out: L6 IC50 (cytotoxicity)

Molecule: O=C(NCCCn1ccnc1[N+](=O)[O-])c1ccc(C(F)(F)F)cc1 [Compound 1]
- activity designation against T. b. rhodesiense [1]: inactive

Molecule: O=C(NCCCn1ccnc1[N+](=O)[O-])c1ccc(OC(F)(F)F)cc1 [Compound 2, N-[3-(2-Nitro-1H-imidazol-1-yl)propyl]-4-(trifluoromethoxy)benzamide]
- activity designation against T. b. rhodesiense [1]: inactive

Molecule: O=C(NCCCCn1cnc([N+](=O)[O-])n1)c1ccc(OC(F)(F)F)cc1 [Compound 6, N-[4-(3-Nitro-1H-1,2,4-triazol-1-yl)butyl]-4-(trifluoromethoxy)benzamide]
- SI (T. cruzi) ([2]; ratio IC50 in L6 cells/IC50 in T. cruzi): >2381

Molecule: O=C(NCCCn1cnc([N+](=O)[O-])n1)c1cc(C(F)(F)F)cc(C(F)(F)F)c1 [Compound 8, N-[3-(3-Nitro-1H-1,2,4-triazol-1-yl)propyl]-3,5-bis(trifluoromethyl)benzamide]
- activity designation against T. b. rhodesiense [1]: inactivity

Molecule: O=C(NCCCn1cnc([N+](=O)[O-])n1)c1ccc(C(F)(F)F)nc1 [Compound 9, N-[3-(3-Nitro-1H-1,2,4-triazol-1-yl)propyl]-6-(trifluoromethyl)pyridine-3-carboxamide]
- activity designation against T. b. rhodesiense [1]: moderate activity

Molecule: O=C(NCCCn1cnc([N+](=O)[O-])n1)c1cnc2ccccc2n1 [Compound 12, N-[3-(3-Nitro-1H-1,2,4-triazol-1-yl)propyl]quinoxaline-2-carboxamide]
- activity designation against T. b. rhodesiense [1]: complete inactivity

Molecule: O=C(NCCCn1cnc([N+](=O)[O-])n1)c1ccc(-c2ccccc2)cc1 [Compound 13, N-[3-(3-Nitro-1H-1,2,4-triazol-1-yl)propyl]-4-phenylbenzamide]
- activity designation against T. b. rhodesiense [1]: moderately active (IC50 = 0.5–6.0 μM)

Molecule: Cc1ccc2nc(NC(=O)Cn3cnc([N+](=O)[O-])n3)sc2c1 [Compound 17, N-(6-methyl-1,3-benzothiazol-2-yl)-2-(3-nitro-1H-1,2,4-triazol-1-yl)acetamide]
- activity designation against T. b. rhodesiense [1]: inactive
- activity designation against L. donovani [3]: moderately active (IC50 = 1.0–6.0 μM)

Molecule: O=C(Cn1cnc([N+](=O)[O-])n1)Nc1nc2ccc(Cl)cc2s1 [Compound 18, N-(6-chloro-1,3-benzothiazol-2-yl)-2-(3-nitro-1H-1,2,4-triazol-1-yl)acetamide]
- activity designation against T. b. rhodesiense [1]: inactive
- activity designation against L. donovani [3]: moderately active (IC50 = 1.0–6.0 μM)

Molecule: O=C(Cn1cnc([N+](=O)[O-])n1)Nc1nc2cc(Cl)ccc2o1 [Compound 19, N-(5-chloro-1,3-benzoxazol-2-yl)-2-(3-nitro-1H-1,2,4-triazol-1-yl)acetamide]
- activity designation against T. b. rhodesiense [1]: inactive

Molecule: O=[N+]([O-])c1nccn1CCCNS(=O)(=O)c1ccc(C(F)(F)F)cc1 [Compound 21, N-[3-(2-Nitro-1H-imidazol-1-yl)propyl]-4-(trifluoromethyl)benzene-1-sulfonamide]
- activity designation against T. b. rhodesiense [1]: inactive

Molecule: O=[N+]([O-])c1ncn(CCCNS(=O)(=O)c2cc(C(F)(F)F)ccc2C(F)(F)F)n1 [Compound 25, N-[3-(3-Nitro-1H-1,2,4-triazol-1-yl)propyl]-2,5-bis(trifluoromethyl)benzene-1-sulfonamide]
- activity designation against T. b. rhodesiense [1]: inactivity

Molecule: O=[N+]([O-])c1ncn(CCNS(=O)(=O)c2cc(C(F)(F)F)cc(C(F)(F)F)c2)n1 [Compound 26, N-[2-(3-nitro-1H-1,2,4-triazol-1-yl)ethyl]-3,5-bis(trifluoromethyl)benzene-1-sulfonamide]
- activity designation against T. b. rhodesiense [1]: inactivity

Molecule: O=[N+]([O-])c1ncn(CCCNS(=O)(=O)c2cc(C(F)(F)F)cc(C(F)(F)F)c2)n1 [Compound 27, N-[3-(3-nitro-1H-1,2,4-triazol-1-yl)propyl]-3,5-bis(trifluoromethyl)benzene-1-sulfonamide]
- activity designation against T. b. rhodesiense [1]: inactivity

Molecule: Cc1ccc(S(=O)(=O)NCCCn2cnc([N+](=O)[O-])n2)cc1 [Compound 28, 4-Methyl-N-[3-(3-nitro-1H-1,2,4-triazol-1-yl)propyl]benzene-1-sulfonamide]
- SI (L.don. ax.) ([3]; ratio IC50 in L6 cells/IC50 in L. donovani): >8.1

Molecule: O=[N+]([O-])c1ncn(CCNS(=O)(=O)Cc2ccccc2)n1 [Compound 30, N-[2-(3-Nitro-1H-1,2,4-triazol-1-yl)ethyl]-1-phenylmethanesulfonamide]
- activity designation against T. cruzi ([2]; TDR criteria): moderately active (IC50 = 4.0–60 μM)

Molecule: Nc1nc(N)nc(Nc2ccc([As]3SCC(CO)S3)cc2)n1 (stereo not drawn) [Melars., Melarsoprol, reference compound]
- IC50 ([1]; Trypanosoma brucei, RHODESIENSE|STIB900, read-out: T.b.rhod. IC50): 12 nM

Molecule: CC1CS(=O)(=O)CCN1/N=C/c1ccc([N+](=O)[O-])o1 (stereo not drawn) [Nfx, 4-(5-nitrofurfurylidenamino)-3-methylthio-morpholine-1,1-dioxide]
- IC50 [4]: 1710 ± 60 nM

Molecule: Podophylotoxin [Podoph.]
- IC50 [5]: 22 nM
